In PMC9050923, “6,N^2-Diaryl-1,3,5-triazine-2,4-diamines: synthesis, antiproliferative activity and 3D-QSAR modeling” (RSC Advances, 2020):

Key:
Assay type in all cases: cell-based
SKBR-3 = test: MTT assay, SKBR-3 breast cancer cells; details: Homo sapiens, SK-BR-3, MTT; for viability at 10 µM: 72 h after the treatment, mean of three independent experiments, read-out: Percentage of cell viability SKBR-3
Experimental: (§1) The prepared compounds 1–126 were tested on three breast cancer cell lines namely, MDA-MB231, SKBR-3 and MCF-7 using MTT assay. SKBR-3 and MCF-7 cell lines are estrogen and progesterone hormone positive cell lines often used as a model for the hormone therapy.[18] MDA-MB231 is triple negative breast cancer cell line, which is negative to estrogen and progesterone receptors and human epidermal growth factor receptor 2, a perfect model for chemotherapy.[18] Initially, all the prepared compounds 1–126 were tested on these three cancer cell lines at the screening concentration (10 μM) and percentage of cell viability was calculated 72 h after the treatment (Table 1).
(§2) The growth inhibitory effect of the compounds was determined on breast tumor cell line (MDA-MB231, SKBR-3 and MCF-7) at different concentrations with methotrexate and nilotinib as positive controls (Table 2).
(§3) The cytotoxic activity of 6,N^2-diaryl-1,3,5-triazine-2,4-diamines (1–126) was evaluated against three breast carcinoma cell lines (MDA-MB231, SKBR-3, and MCF-7) and normal breast cell line (MCF-10A) by MTT assay.[22] All cells were obtained from the American Type Culture Collection and were grown in 10% fetal bovine serum and 1% pen-strep antibiotic supplemented media (DMEM for MDA-MB231 and SKBR-3, RPMI for MCF-7, and MEGM for MCF-10A). For MTT assay, 20 000 to 75 000 cells per mL (based on the doubling time for each cell line) were seeded in 96 well plates and incubated for 24 h at 37 °C in 5% CO2 incubator. Then, compounds at different concentrations were added followed by the incubation at 37 °C for 72 h. After that, MTT solution (0.5 mg mL^−1) was added and the plates were incubated for another 4 h. The supernatant was then discarded and 100 μL of DMSO was added to each well. The plates were then read by Tecan NanoQuant (model: infinite m200 pro) plate reader and absorbance was measured at 570 nm. GI50 values were calculated using sigmoidal concentration–response curves (see ESI ^†) generated using the GraphPad Prism 7 program. Three independent experiments were carried out and the data were represented as mean of the three experiments.

MCF-7 = test: MTT assay, MCF-7 breast cancer cells; details: Homo sapiens; for viability at 10 µM: MCF7, 10 μM, 72 h after the treatment, mean of three independent experiments, read-out: Percentage of cell viability MCF-7
Experimental: as §1, §2, §3

MDA-MB231 = test: MTT assay, MDA-MB231 breast cancer cells; details: Homo sapiens, MDA-MB-231, MTT; for viability at 10 µM: 72 h after the treatment, mean of three independent experiments, read-out: Percentage of cell viability MDA-MB231; for GI50: 72 h, mean of three independent experiments ± SEM, read-out: GI50 (μM) ± SEM MDA-MB231
Experimental: as §1, §2, §3

`COc1ccccc1Nc1nc(N)nc(-c2ccc(F)cc2)n1` [Compound 29] showed a viability at 10 µM (SKBR-3) of 81%, a viability at 10 µM (MCF-7) of 96% and a viability at 10 µM (MDA-MB231) of 60%.

With `Nc1nc(Nc2ccc(OC(F)(F)F)cc2)nc(-c2ccc(F)cc2)n1` [Compound 31] the viability at 10 µM (SKBR-3) was 92%, the viability at 10 µM (MCF-7) was 87% and the viability at 10 µM (MDA-MB231) was 88%.

In the case of `CC(C)c1ccc(Nc2nc(N)nc(-c3ccc(F)cc3)n2)cc1` [Compound 32], the viability at 10 µM (SKBR-3) is reported as 100%, the viability at 10 µM (MCF-7) is reported as 84% and the viability at 10 µM (MDA-MB231) is reported as 94%.

Work on `Nc1nc(Nc2cccnc2)nc(-c2ccc(F)cc2)n1` [Compound 33] yielded a viability at 10 µM (SKBR-3) of 87%, a viability at 10 µM (MCF-7) of 85% and a viability at 10 µM (MDA-MB231) of 74%.

In the case of `Nc1nc(Nc2ccccc2F)nc(-c2ccc(Cl)cc2)n1` [Compound 35], the viability at 10 µM (SKBR-3) is reported as 99%, the viability at 10 µM (MCF-7) is reported as 93% and the viability at 10 µM (MDA-MB231) is reported as 82%.

`Nc1nc(Nc2ccccc2Cl)nc(-c2ccc(Cl)cc2)n1` [Compound 37] was tested, and the viability at 10 µM (SKBR-3) was 89%, the viability at 10 µM (MCF-7) was 99% and the viability at 10 µM (MDA-MB231) was 99%.

With `Nc1nc(Nc2cccc(Cl)c2)nc(-c2ccc(Cl)cc2)n1` [Compound 38] the viability at 10 µM (SKBR-3) was 92%, the viability at 10 µM (MCF-7) was 84% and the viability at 10 µM (MDA-MB231) was 99%.

In the case of `Nc1nc(Nc2ccc(Cl)cc2)nc(-c2ccc(Cl)cc2)n1` [Compound 39], the viability at 10 µM (SKBR-3) is reported as 100%, the viability at 10 µM (MCF-7) is reported as 100% and the viability at 10 µM (MDA-MB231) is reported as 97%.

Work on `Nc1nc(Nc2ccc(Br)cc2)nc(-c2ccc(Cl)cc2)n1` [Compound 40] yielded a viability at 10 µM (SKBR-3) of 100%, a viability at 10 µM (MCF-7) of 92% and a viability at 10 µM (MDA-MB231) of 80%.

In the case of `COc1ccccc1Nc1nc(N)nc(-c2ccc(Cl)cc2)n1` [Compound 41], the viability at 10 µM (SKBR-3) is reported as 89%, the viability at 10 µM (MCF-7) is reported as 100% and the viability at 10 µM (MDA-MB231) is reported as 83%.

In the case of `COc1ccc(Nc2nc(N)nc(-c3ccc(Cl)cc3)n2)cc1` [Compound 42], the viability at 10 µM (SKBR-3) is reported as 90%, the viability at 10 µM (MCF-7) is reported as 85% and the viability at 10 µM (MDA-MB231) is reported as 61%.

`Nc1nc(Nc2ccc(OC(F)(F)F)cc2)nc(-c2ccc(Cl)cc2)n1` [Compound 43] gave a viability at 10 µM (SKBR-3) of 83%, a viability at 10 µM (MCF-7) of 100% and a viability at 10 µM (MDA-MB231) of 93%.

`CC(C)c1ccc(Nc2nc(N)nc(-c3ccc(Cl)cc3)n2)cc1` [Compound 44] gave a viability at 10 µM (SKBR-3) of 97%, a viability at 10 µM (MCF-7) of 96% and a viability at 10 µM (MDA-MB231) of 100%.

For `Nc1nc(Nc2cccnc2)nc(-c2ccc(Cl)cc2)n1` [Compound 45], the viability at 10 µM (SKBR-3) was 74%, the viability at 10 µM (MCF-7) was 89% and the viability at 10 µM (MDA-MB231) was 99%.

`Nc1nc(Nc2ccccc2F)nc(-c2ccc(Br)cc2)n1` [Compound 46] showed a viability at 10 µM (SKBR-3) of 91%, a viability at 10 µM (MCF-7) of 100% and a viability at 10 µM (MDA-MB231) of 75%.

`Nc1nc(Nc2ccc(F)cc2)nc(-c2ccc(Br)cc2)n1` [Compound 47] gave a viability at 10 µM (SKBR-3) of 98%, a viability at 10 µM (MCF-7) of 100% and a viability at 10 µM (MDA-MB231) of 58%.

`Nc1nc(Nc2ccccc2Cl)nc(-c2ccc(Br)cc2)n1` [Compound 48] was tested, and the viability at 10 µM (SKBR-3) was 93%, the viability at 10 µM (MCF-7) was 100% and the viability at 10 µM (MDA-MB231) was 90%.

With `Nc1nc(Nc2ccc(Cl)cc2)nc(-c2ccc(Br)cc2)n1` [Compound 49] the viability at 10 µM (SKBR-3) was 100%, the viability at 10 µM (MCF-7) was 100% and the viability at 10 µM (MDA-MB231) was 96%.

For `Cc1ccc(Nc2nc(N)nc(-c3ccc(Br)cc3)n2)cc1` [Compound 50], the viability at 10 µM (SKBR-3) was 93%, the viability at 10 µM (MCF-7) was 88% and the viability at 10 µM (MDA-MB231) was 55%.

In the case of `COc1ccccc1Nc1nc(N)nc(-c2ccc(Br)cc2)n1` [Compound 51], the viability at 10 µM (SKBR-3) is reported as 89%, the viability at 10 µM (MCF-7) is reported as 96% and the viability at 10 µM (MDA-MB231) is reported as 88%.

`CN(Cc1cnc2nc(N)nc(N)c2n1)c1ccc(C(=O)N[C@@H](CCC(=O)O)C(=O)O)cc1` [Methotrexate, reference compound] was tested, and the GI50 (MCF-7; MCF7, 72 h, mean of three independent experiments ± SEM) was 5.79 ± 0.47 µM and the GI50 (MDA-MB231) was 0.01 ± 0.001 µM.

`Cc1cn(-c2cc(NC(=O)c3ccc(C)c(Nc4nccc(-c5cccnc5)n4)c3)cc(C(F)(F)F)c2)cn1` [Nilotinib, reference compound] showed a GI50 (SKBR-3; 72 h, mean of three independent experiments ± SEM) of 9.6 ± 0.51 µM and a GI50 (MDA-MB231) of 0.04 ± 0.001 µM.
